Results taken from US11130960B2, “Methods for conferring or enhancing herbicide resistance on plants and/or alga with protoporphyrinogen oxidase variants” (FARM HANNONG CO., LTD., priority 2014, dated 2021).

Experiments:
[1] = test system: Halothece sp. PCC 7418 strain; assay: Herbicide resistance test of Halothece sp. PCC 7418 strain in CRBIP medium; type: cell-based; conditions: 8 days after treatment, CRBIP Medium 1538
Procedure: Halothece sp. PCC 7418 strain was cultured in CRBIP Medium 1538 (Institut Pasteur, France). CRBIP Medium 1538 is a mixed medium of ASNIII and Turks Island Salts 4× at a ratio of 1:1(v/v), and ASNIII medium was composed of 25.0 g of NaCl, 3.5 g of MgSO4.7H2O, 2.0 g of MgCl2.6H2O, 0.5 g of KCl, 0.5 g of CaCl2.2H2O, 0.75 g of NaNO3, 0.02 g of K2HPO4.3H2O, 0.04 g of NaCO3, 2.5 ml of ammonium iron(III) citrate/citric acid monohydrate solution [a mixture of 300 mg of ammonium iron(III) citrate, 300 mg of citric acid monohydrate, and 250 ml of distilled water], 2.5 ml of magnesium titriplex dihydrate solution [a mixture of 0.1 g of Mg EDTA and 500 ml of distilled water], 1 ml of trace metal A5+Co [a mixture of 2.86 g of H3BO3, 1.81 g of MnCl2.4H2O, 0.222 g of ZnSO4.7H2O, 0.39 g of NaMoO4.2H2O, 0.079 g of CuSO4.5H2O, 0.049 g of Co(NO3)2.6H2O and 1000 ml of distilled water], and 1000 ml of distilled water. Turks Island Salts 4× was composed of 112 g of NaCl, 2.68 g of KCl, 22 g of MgCl2.6 H2O, 27.7 g of MgSO4.7 H2O, 5.8 g of CaCl2.2 H2O, and 1000 ml of distilled water. ASNIII medium and Tursk Island Salts 4× were autoclaved at 120° C. for 20 minutes, respectively and then mixed at a ratio of 1:1(v/v).
5 ml of the above culture medium was added to a test tube, and 2 or 10 μM of Tiafenacil was added thereto or not. The seed-cultured Halothece sp. […]

[2] = test system: mutant AtPPO1 transformant; assay: Seed germination on ½ MS medium containing herbicide; type: in vivo, Arabidopsis thaliana; conditions: ½ MS medium containing 70 nM tiafenacil

## COC(=O)CCNC(=O)C(C)Sc1cc(-n2c(=O)cc(C(F)(F)F)n(C)c2=O)c(F)cc1Cl (centres unmarked) [Tiafenacil]
[1]
  concentration at which growth of the strain was maintained: 10 µM
[2]
  seed germination: showed germination
